Measurements taken from US10240133B2, “ERK-derived peptides and uses thereof” (Yeda Research and Development Co. Ltd., priority 2013, dated 2019).

What was measured:
[1] = system: B-Raf melanoma cells; assay: Morphology assay (light microscopy); assay type: cell-based; conditions: 10 μM
Protocol: (§1) FIGS. 5A-5D illustrate that the EPE peptide leads to apoptosis of B-Raf mutant cancer cells. (A) The EPE peptide affects the morphology of treated cells. The indicated cells were treated with either the EPE or Scr peptides, DMSO, or taxol for 72 h, and photographed by a light microscope. (B) The EPE peptide induces apoptosis in melanoma cells detected by TUNEL. The indicated cell lines were treated as in A for 24 h. Apoptosis was detected by TUNEL staining. Images were obtained by florescence microscope. (C) Quantification of B. The bar-graph represents percent of apoptotic cells calculated in 10 different fields. (D) The EPE peptide induces apoptosis of melanoma cells detected by PARP cleavage. The indicated cell lines were treated as in (A) for 24 h. Cell extracts were subjected to Western blotting with αPARP Ab.
Cells were seeded on glass cover slips in a 12-wells plate at 25% confluence with medium containing 1% of FCS. Peptides (EPE or Scr), DMSO, or U0126 in a final concentration of 10 μM, were added after 4 h (considered as time “0”). TUNEL staining was performed at 24 h after the treatment according to manufacturer instruction (Roche Applied Science, Nutley, N.J., USA). Briefly, the medium was removed and cells were fixed with 3% of paraformaldehyde (1.5 h, 23° C.). Cells were rinsed twice with PBS and permeabilized with 0.1% Triton X-100 and 0.1% sodium citrate for 2 min on ice. Cells were rinsed twice with PBS and 28 μl of TUNEL reaction mixture (25 μl of TUNEL label, 2.5 μl of TUNEL enzyme and 0.1 mg/ml of DAPI) was added directly on top of the slide, cells were incubated for 16 h in humid box at 37° C. Cover slips were rinsed three times with PBS and mounted on microscope slides. The slides were dried and then subjected to image acquisition by a florescence microscope. For morphology assay, the cells were seeded at approximately 25% confluence in 6 cm plates with medium containing 1% FCS. Peptides (EPE and Scr) or DMSO or U0126 in a final concentration of 10 μM, were added after 4 h (considered to be time 0), 24 h and 48 h. […]

[2] = system: ERK1/2; assay: Nuclear translocation of ERK (fluorescence microscopy, subcellular fractionation); assay type: cell-based; conditions: HeLa cells
Protocol: FIGS. 1A-1F illustrate that EPE peptide prevents nuclear translocation of ERK1. A2352 (A), MDA-MB-231 (B) HeLa (C), T47D (D), NHEM-AD (E) and HB2 (F) cells were serum-starved, pretreated with the EPE peptides, Scr peptide (10 μM, 2 h) DMSO and then either stimulated with TPA (250 nM, 15 min) or left untreated (NS) as control. The cells were stained with αgERK1/2 Ab and DAPI. Scale-bar—15 μm.
FIGS. 12A-12D illustrate that the EPE peptide inhibits the nuclear translocation of ERK1/2. Serum-starved (0.1% FCS, 16 hr) A2352 (FIG. 12A), HeLa (FIG. 12B), MDA-MB-231 (FIG. 12C), or LOXMVI (FIG. 12D) cells were pretreated with EPE or scrambled peptides (10 μM, 2 hr). Cells were then stimulated with EGF (50 ng/ml) or left untreated, and then harvested. Subcellular fractionation of cytoplasm and nucleus was performed as below, and fractions were subjected to Western blot analysis with the indicated Abs. Subcellular Fractionation was performed as follows: Harvested cells were resuspended in 200 μl of buffer H containing 0.1% Nonidet P-40. The lysates were mixed vigorously and centrifuged immediately to yield supernatants containing the cytosolic fraction. Nuclear proteins were extracted by resuspending the nuclear pellets in 200 μl of extraction buffer, waiting on ice for 5 min, brief sonication (2×5 sec, 40 W, 4° C.), vigorous mixing, and centrifugation. Both cytosolic and nuclear fractions were subjected to Western blotting.
A2185 (A) and A2352 (B) B-Raf melanoma cells were serum-starved (16 hours, 0.1% FBS), and then either pretreated with the EPE peptides (10 μM, 2 hours) or left untreated. Then, the cells were stimulated with TPA ([…], 20 min), or left untreated (NS) DMSO as control. The cells were stained with either anti ERK1 (Santa Cruz, C16) or anti ERK2 (C14, Santa Cruz) Abs and DAPI. (C) Quantification of the number of cell in which ERK1 or ERK2 were mostly (>80%) localized in the nucleus was performed by counting 5 fields containing 100 cells per field.
FIGS. 15A-15B illustrate that the EPE peptide prevents nuclear accumulation/translocation of ERK1/2 in PLX4032-resistant melanoma cells. A2352 that were made resistant to PLX4032 (as described under Material and Methods) and A4132 PLX4032 resistant melanoma cell from patient were serum-starved (16 hours, 0.1%), pretreated with the EPE or scrambled peptide (10 μM, 2 hours) and then either stimulated with TPA (100 nM, 20 min) or left untreated (NT) as control. The cells were stained with αgERK1/2 Ab and DAPI.
Cells were fixed in 3% paraformaldehyde in PBS (20 min, 23° C.), and then permeabilized and blocked with 0.2% Triton X-100 in PBS-BSA (2%) for 20 min at 23° C. The fixed cells were sequentially incubated with appropriated Abs, (diluted in 10 μg/ml BSA/PBS) for 1 h, followed by either Cy-2 or rhodamine-conjugated secondary Abs and DAPI (diluted in BSA/PBS, 1:200) for 1 h. To follow the subcellular localization of the biotin-conjugated peptides, cells were incubated with Avidin-FITC (diluted in BSA/PBS 1:400) and DAPI. Slides were analyzed and photographed by a fluorescent microscope (Nikon, Japan, 600× magnification).

[3] = system: other cell lines examined; assay: Apoptosis (TUNEL, PARP-1 cleavage); assay type: cell-based
Protocol: as §1
Cells were seeded on glass cover slips in a 12-wells plate at 25% confluence with medium containing 1% of FCS. Peptides (EPE or Scr), DMSO, or U0126 in a final concentration of 10 μM, were added after 4 h (considered as time “0”). TUNEL staining was performed at 24 h after the treatment according to manufacturer instruction (Roche Applied Science, Nutley, N.J., USA). Briefly, the medium was removed and cells were fixed with 3% of paraformaldehyde (1.5 h, 23° C.). Cells were rinsed twice with PBS and permeabilized with 0.1% Triton X-100 and 0.1% sodium citrate for 2 min on ice. Cells were rinsed twice with PBS and 28 μl of TUNEL reaction mixture (25 μl of TUNEL label, 2.5 μl of TUNEL enzyme and 0.1 mg/ml of DAPI) was added directly on top of the slide, cells were incubated for 16 h in humid box at 37° C. Cover slips were rinsed three times with PBS and mounted on microscope slides. The slides were dried and then subjected to image acquisition by a florescence microscope. For morphology assay, the cells were seeded at approximately 25% confluence in 6 cm plates with medium containing 1% FCS. Peptides (EPE and Scr) or DMSO or U0126 in a final concentration of 10 μM, were added after 4 h (considered to be time 0), 24 h and 48 h. Images were obtained by a light microscope (Olympus BX51) after 72 h.

[4] = system: PLX-4032 and U0126 resistant A2352 melanoma cells; assay: Proliferation of inhibitor-resistant melanoma cells; assay type: cell-based
Protocol: (A) A2352 melanoma cells resistant to either PLX4032 (B-Raf) or U0126 (MEK) inhibitors were treated with DMSO, EPE or Scr peptide (10 μM), U0126 (10 μM), PLX4032 (1 μM), Wortmannin (0.5 μM) or Taxol (25 μg/ml). Presented as percent of viable cells at 72 h/initial cell number. […] Methylene blue assay was performed to quantify viable cells. Experiments were done twice in triplicate. Data presented as fold change.
A2352 cells were supplemented with either PLX4032 (B-Raf inhibitor, 1 μM), or U0126 (MEK inhibitor, 10 μM) for 45 days. […]

[5] = system: A2352 xenografts; assay: Tumor disappearance and recurrence in A2352 xenografts, EPE peptide compared with PLX4032; assay type: in vivo, SCID mice
Protocol: FIGS. 6A-6B illustrate that the EPE peptide prevents the growth of human tumor xenografts. CD-1 nude mice were inoculated with MDA-MB-231, LOXIMVI and HCT-116 cells, and SKID mice were inoculated with A2352 cells. Upon tumors establishment, the mice were treated intravenously with the DMSO as well as EPE or Scr peptides in the indicated doses, 3 times a week. The results are averages of 5 mice in each experimental group. The X, Y, Z dimensions of the tumors were measured with a caliper, and the volume was calculated accordingly. The significance of all experiments was at least P<0.001. (B) The EPE peptide prevents tumor recurrence on melanoma xenograft. SCID mice were inoculated with A2352 cells. Upon establishment of tumors mice were treated intravenously with 15 mg/kg EPE peptide (n=7) or intraperitonealy with 15 mg/kg PLX4032 (n=5), at the indicated dose 3 times a week. Tumor size was recorded at the same time using a caliper. Following 3 weeks of treatment, mice were kept for further evaluation monitoring for any tumor recurrence of the effective treated melanoma xenografts. Experiment was concluded 110 days post inoculation (11 weeks after the last treatment) and the overall state of the animals was evaluated. sac=sacrificed, recur=recurrence, met=metastasis.
Tumor dimensions were measured with a digital sliding caliper.

[6] = system: N-Ras transformed melanoma cells LOXIMVI; assay: Cell viability, EPE peptide compared with PLX4032; assay type: cell-based; conditions: EPE 10 μM, PLX4032 1 μM, 1% FCS
Protocol: (§2) FIGS. 3A-3B illustrate that EPE peptide prevents proliferation of cancer but not normal cells. (A) Effect of the EPE peptide on the proliferation of various cell lines. Sixteen cancer and four “normal” immortalized cell lines were treated with either EPE or scrambled peptides as described above. Viable cells were assayed by Methylene Blue at 48 or 72 hours after cell seeding. The data from at least three independent experiments is presented as percent of the amount of viable cells/initial cell number, where initial cell number was considered as 100. (B) Comparison of the effects of the EPE-peptide and Raf inhibitor PLX4032 on cell viability. NHEM-Ad, LOXIMVI, A2352, Hela MDA-MB-231, and DU-145 cells were treated with EPE peptide, scrambled peptide, (10 μM), PLX4032 (1 μM), DMSO control, or no treatment at 1% FCS. The number of cells was detected as above. The graphs present the kinetic of cell growth at the indicated times. All experiments were repeated 3 times in triplicates.
(§3) All cells, except of MCF-10A, were seeded into 12-well cell plates in 1% FBS medium. MCF-10A cells were seeded in their complete medium diluted 5 fold. DMSO, Scr peptide, EPE peptide, or U0126 (final concentration of 10 μM each) were added to the appropriated wells four hours later. Every day medium was changed to fresh one containing the same agents. The number of viable cells was measured by Methylene Blue assay at 72 h after cell seeding. Shortly, cells were fixed with 4% Formaldehyde for 2 h at 23° C., washed once with 0.1M Borate Buffer pH 8.5 and stained with of 1% Methylene Blue in 0.1M Borate Buffer for 10 min. Color was extracted by adding 0.1 M HCl for 3 h at 23° C., and examined at 595 nm. For time course experiments, viable cells were measured at 0, 24, 48, 72 and 96 h after cell seeding. For dose response experiments we treaded the cells with 0.1, 1, 3, 10, or 30 μM of peptides for 72 h, as described above.

[7] = system: non-transformed melanocytes (NHEM-Ad); assay: Cell viability, EPE peptide compared with PLX4032; assay type: cell-based; conditions: EPE 10 μM, PLX4032 1 μM, 1% FCS
Protocol: as §2, §3

With `N#CC(=C(/N)Sc1ccccc1N)/C(C#N)=C(\N)Sc1ccccc1N` [U0126, reference compound] as the compound, how does the cell morphology [1] read?
The cell morphology was “A similar appearance, albeit a weaker one”.

What about the “TPA-induced nuclear translocation of ERK” value [2] of the same compound?
Its value is “inhibition”.

How did the “TPA-induced nuclear translocation of ERK” value [2] turn out when “GQLNHILGILGSPSQED (Synthetic peptide (SPS)) [SPS peptide, NTS-derived peptide of ERK]” was run?
The value was “prevented TPA-induced nuclear translocation of ERK”.

With `CC(=O)O[C@H]1C(=O)[C@@]2(C)[C@H]([C@H](OC(=O)c3ccccc3)[C@]3(O)C[C@H](OC(=O)[C@H](O)[C@@H](NC(=O)c4ccccc4)c4ccccc4)C(C)=C1C3(C)C)[C@]1(OC(C)=O)CO[C@@H]1C[C@@H]2O` [Taxol, reference compound] as the compound, how does the “apoptosis / cell death” value [3] read?
Its value is “clear ability to undergo a Taxol or H2O2-induced cell death”.

And the “effect in resistant compared with non-resistant cells” value [4]?
Its value is “as effective in non-resistant, as resistant cells”.

Which results are given for `CCCS(=O)(=O)Nc1ccc(F)c(C(=O)c2c[nH]c3ncc(-c4ccc(Cl)cc4)cc23)c1F` [PLX4032, reference compound]?
time to complete disappearance of tumors ([5]; 15 mg/kg, 3 times a week): 13 to 23 days; tumor disappearance ([5]; 15 mg/kg, 3 times a week, 3 weeks, EPE i.v. (n=7), PLX4032 i.p. (n=5), initial ~80 mm3 tumors): complete disappearance in three mice; time to development of resistance (one mouse) ([5]; during treatment): ≤ 13 days; mice with tumor recurrence ([5]; follow up for up to 11 weeks after last treatment): 3 out of 5; viability [6]: not sensitive to PLX4032; viability [7]: strong inhibitory effect

`OO` [H2O2] was tested. Which “apoptosis / cell death” value [3] did it give?
The value was “clear ability to undergo a Taxol or H2O2-induced cell death”.
